BindingDB's records for doi:10.1021/cb900264w (The Weizmann Institute of Science, 2010)

How the values were obtained:
[1] = target: T1, Amine oxidase [flavin-containing] B (Rattus norvegicus, UniProt P19643); assay: Enzyme Inhibition Assay; details: pH 7.4; 37 °C
T1 sequence (P19643 whole entry): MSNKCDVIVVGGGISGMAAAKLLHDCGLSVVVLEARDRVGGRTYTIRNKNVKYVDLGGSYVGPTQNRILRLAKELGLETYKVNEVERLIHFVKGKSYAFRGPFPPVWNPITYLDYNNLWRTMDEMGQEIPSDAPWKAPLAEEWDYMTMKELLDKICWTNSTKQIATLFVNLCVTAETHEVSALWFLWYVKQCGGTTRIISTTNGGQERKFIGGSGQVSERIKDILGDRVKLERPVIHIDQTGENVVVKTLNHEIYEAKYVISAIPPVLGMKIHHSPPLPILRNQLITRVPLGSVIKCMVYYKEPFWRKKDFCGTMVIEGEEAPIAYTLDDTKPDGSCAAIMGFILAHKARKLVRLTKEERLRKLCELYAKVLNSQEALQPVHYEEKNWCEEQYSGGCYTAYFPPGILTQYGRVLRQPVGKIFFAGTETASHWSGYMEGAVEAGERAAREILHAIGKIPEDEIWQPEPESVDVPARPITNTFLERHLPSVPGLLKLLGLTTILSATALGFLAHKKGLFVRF
Text: (§1) Inhibition of MAO activity in rat brain homogenates.

[2] = target: T2, Amine oxidase [flavin-containing] A (Rattus norvegicus, UniProt P21396); assay: Enzyme Inhibition Assay; details: pH 7.4; 37 °C
T2 sequence (P21396 whole entry): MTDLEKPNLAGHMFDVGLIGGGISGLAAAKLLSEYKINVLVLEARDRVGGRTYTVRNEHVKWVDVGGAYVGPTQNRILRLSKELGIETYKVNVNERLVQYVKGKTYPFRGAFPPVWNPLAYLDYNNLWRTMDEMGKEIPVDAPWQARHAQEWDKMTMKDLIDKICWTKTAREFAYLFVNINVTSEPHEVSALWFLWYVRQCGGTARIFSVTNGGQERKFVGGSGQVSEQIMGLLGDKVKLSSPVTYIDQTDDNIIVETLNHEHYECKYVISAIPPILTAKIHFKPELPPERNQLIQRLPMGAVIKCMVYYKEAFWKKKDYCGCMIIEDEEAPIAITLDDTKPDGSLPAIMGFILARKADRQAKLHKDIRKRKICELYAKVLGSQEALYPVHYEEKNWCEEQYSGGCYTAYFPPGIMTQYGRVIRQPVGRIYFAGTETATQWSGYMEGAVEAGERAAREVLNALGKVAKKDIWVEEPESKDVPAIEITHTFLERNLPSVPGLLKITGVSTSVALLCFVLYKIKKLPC
Text: as §1

Row | Compound | IC50 [1] [nM] | IC50 [2] [nM]
1 | C#CCN(C)Cc1ccc(O)c2ncccc12 [Chelator, M30] | 37 | –
2 | C#CCN(C)Cc1ccc(OC(=O)N(C)C)c2ncccc12 [Prochelators, 2] | 7900 | 7.7
3 | C#CCN(C)Cc1ccc(OC(=O)N(C)CC)c2ncccc12 [Prochelators, 3] | – | 9.6
